Test results reported in US10633375B2, “Oxopicolinamide derivative, preparation method therefor and pharmaceutical use thereof” (Jiangsu Hengrui Medicine Co., Ltd., priority 2016, dated 2020).

What follows are compounds tested against Coagulation Factor XIa protease (Homo sapiens (Human), UniProt P03951) (assay: Inhibition of Factor XIa detected by absorption photometry). Details: absorbance at 405 nm, 10 minutes at 37° C.
Format: biochemical
Protocol: Test Example 1: Biological Activity of the Compounds of the Present Invention on
The Inhibition of Factor XIa Detected by Absorption Photometry
1. Experimental Materials
Enzyme: Coagulation Factor XIa protease (Abcam, Art. No ab62411)
Substrate: Coagulation Factor XIa specific substrate (HYPHEN1310 med, Art. No. Biophen cs-21(66))
2. Experimental Procedure
20 mM of test compound dissolved in 100% DMSO was diluted to 200, 20, 2, 0.2, 0.02, 0.002 μM with 100% DMSO; 1 μl of the compound was added to each well in a 384-well plate, blank and control wells were replaced with DMSO. The plate was centrifuged to remove the compound to the bottom. 10 μl (2.5 μg/ml) of FXIa enzyme solution was added to each well, and 10 μl of buffer was added to the blank well. The plate was centrifuged to remove the enzyme solution to the bottom.
Finally, 10 μl of 2 mM substrate were added to each well, and the plate was centrifuged to remove the substrate solution to the bottom.
The plate was incubated for 10 minutes at 37° C.; and then the absorbance was measured at 405 nm.

Coagulation Factor XIa protease, sequence (P03951 388-625): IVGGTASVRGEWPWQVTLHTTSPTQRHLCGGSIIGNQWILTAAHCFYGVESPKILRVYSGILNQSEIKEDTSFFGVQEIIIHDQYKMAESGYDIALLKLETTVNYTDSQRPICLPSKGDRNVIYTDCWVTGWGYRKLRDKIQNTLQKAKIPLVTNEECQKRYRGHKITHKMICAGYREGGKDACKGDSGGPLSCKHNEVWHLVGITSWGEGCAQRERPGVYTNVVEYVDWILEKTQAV
Coagulation Factor XIa protease, sequence (P03951 19-387 partner): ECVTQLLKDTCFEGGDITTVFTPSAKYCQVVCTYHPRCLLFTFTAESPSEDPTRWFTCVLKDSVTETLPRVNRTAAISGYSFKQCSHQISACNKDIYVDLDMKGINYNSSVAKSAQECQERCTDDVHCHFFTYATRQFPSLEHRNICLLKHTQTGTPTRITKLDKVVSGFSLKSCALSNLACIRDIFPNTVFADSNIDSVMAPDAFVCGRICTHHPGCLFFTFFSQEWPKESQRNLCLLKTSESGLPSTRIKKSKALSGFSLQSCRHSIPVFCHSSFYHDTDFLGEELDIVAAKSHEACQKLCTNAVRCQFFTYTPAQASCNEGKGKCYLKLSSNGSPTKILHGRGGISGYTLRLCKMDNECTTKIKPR

IC50 | Compound
71 nM | COc1cn(C(Cc2ccccc2)C(=O)Nc2ccc3cnccc3c2)c(=O)cc1-c1cc(Cl)ccc1C(C)=O (centres unmarked) [Example 46, 2-(4-(2-acetyl-5-chlorophenyl)-5-methoxy-2-oxopyridin-1 (2H)-yl)-N-(isoquinolin-6-yl)-3-phenylpropanamide]
82 nM | COc1cn(C(Cc2ccccc2)C(=O)Nc2ccc3[nH]cnc3c2)c(=O)cc1-c1cc(Cl)ccc1C(C)=O (centres unmarked) [Example 47, 2-(4-(2-acetyl-5-chlorophenyl)-5-methoxy-2-oxopyridin-1 (2H)-yl)-N-(1H-benzo[d]imidazol-5-yl)-3-phenylpropanamide]
55 nM | COc1cn(C(Cc2ccc(F)cc2)C(=O)Nc2ccc(C(=O)O)cc2)c(=O)cc1-c1cc(Cl)ccc1C(C)=O (centres unmarked) [Example 63, 4-(2-(4-(2-acetyl-5-chlorophenyl)-5-methoxy-2-oxopyridin-1(2H)-yl)-3-(4-fluorophenyl)propanamido)benzoic acid]
58 nM | COc1cn(C(Cc2ccccc2Br)C(=O)Nc2ccc(C(=O)O)cc2)c(=O)cc1-c1cc(Cl)ccc1C(C)=O (centres unmarked) [Example 64, 4-(2-(4-(2-acetyl-5-chlorophenyl)-5-methoxy-2-oxopyridin-1 (2H)-yl)-3-(2-bromophenyl)propanamido)benzoic acid]
43 nM | COc1cn(C(Cc2ccc(F)cc2F)C(=O)Nc2ccc(C(=O)O)cc2)c(=O)cc1-c1cc(Cl)ccc1C(C)=O (centres unmarked) [Example 65, 4-(2-(4-(2-acetyl-5-chlorophenyl)-5-methoxy-2-oxopyridin-1(2H)-yl)-3-(2,4-difluorophenyl)propanamido)benzoic acid]
34 nM | COc1cn(C(Cc2ccccc2C)C(=O)Nc2ccc(C(=O)O)cc2)c(=O)cc1-c1cc(Cl)ccc1C(C)=O (centres unmarked) [Example 66, 4-(2-(4-(2-acetyl-5-chlorophenyl)-5-methoxy-2-oxopyridin-1(2H)-yl)-3-(o-tolyl)propan amido)benzoic acid]
35 nM | COc1cn(C(Cc2cccc(C)c2)C(=O)Nc2ccc(C(=O)O)cc2)c(=O)cc1-c1cc(Cl)ccc1C(C)=O (centres unmarked) [Example 67, 4-(2-(4-(2-acetyl-5-chlorophenyl)-5-methoxy-2-oxopyridin-1(2H)-yl)-3-(m-tolyl)propan amido)benzoic acid]
47 nM | COc1cn(C(Cc2ccccc2F)C(=O)Nc2ccc(C(=O)O)cc2)c(=O)cc1-c1cc(Cl)ccc1C(C)=O (centres unmarked) [Example 68, 4-(2-(4-(2-acetyl-5-chlorophenyl)-5-methoxy-2-oxopyridin-1(2H)-yl)-3-(2-fluorophenyl)propanamido)benzoic acid]
49 nM | COc1cn(C(Cc2ccc(Cl)cc2)C(=O)Nc2ccc(C(=O)O)cc2)c(=O)cc1-c1cc(Cl)ccc1C(C)=O (centres unmarked) [Example 69, 4-(2-(4-(2-acetyl-5-chlorophenyl)-5-methoxy-2-oxopyridin-1 (2H)-yl)-3-(4-chlorophenyl)propanamido)benzoic acid]
54 nM | COc1cn(C(Cc2ccccc2Cl)C(=O)Nc2ccc(C(=O)O)cc2)c(=O)cc1-c1cc(Cl)ccc1C(C)=O (centres unmarked) [Example 70, 4-(2-(4-(2-acetyl-5-chlorophenyl)-5-methoxy-2-oxopyridin-1 (2H)-yl)-3-(2-chlorophenyl)propanamido)benzoic acid]
100 nM | COc1cn(C(Cc2ccc(C)cc2)C(=O)Nc2ccc(C(=O)O)cc2)c(=O)cc1-c1cc(Cl)ccc1C(C)=O (centres unmarked) [Example 74, 4-(2-(4-(2-acetyl-5-chlorophenyl)-5-methoxy-2-oxopyridin-1(2H)-yl)-3-(p-tolyl)propanamido)benzoic acid]
100 nM | COc1cn(C(Cc2ccc(NC(C)=O)cc2)C(=O)Nc2ccc(C(=O)O)cc2)c(=O)cc1-c1cc(Cl)ccc1C(C)=O (centres unmarked) [Example 75, 4-(3-(4-acetamidophenyl)-2-(4-(2-acetyl-5-chlorophenyl)-5-methoxy-2-oxopyridin-1(2H)-yl)propanamido)benzoic acid]

Further lines, the compound ahead of its results:

Compound | IC50
COc1cn(C(Cc2ccsc2)C(=O)Nc2ccc(C(=O)O)cc2)c(=O)cc1-c1cc(Cl)ccc1C(C)=O (centres unmarked) [Example 7, 4-(2-(4-(2-acetyl-5-chlorophenyl)-5-methoxy-2-oxopyridin-1 (2H)-yl)-3-(thiophen-3-yl)propanamido)benzoic acid] | 34 nM
COC(=O)Nc1ccc(NC(=O)[C@H](Cc2ccccc2)n2cc(OC)c(-c3cc(Cl)ccc3C(C)=O)cc2=O)cc1 [Example 12, methyl (S)-(4-(2-(4-(2-acetyl-5-chlorophenyl)-5-methoxy-2-oxopyridin-1(2H)-yl)-3-phenylpropanamido)phenyl)carbamate] | 42 nM
COc1cn(C(Cc2ccc(NC(=O)C3CC3)cc2)C(=O)Nc2ccc(C(=O)O)cc2)c(=O)cc1-c1cc(Cl)ccc1C(C)=O (centres unmarked) [Example 16, 4-(2-(4-(2-acetyl-5-chlorophenyl)-5-methoxy-2-oxopyridin-1(2H)-yl)-3-(4-(cyclopropanecarboxamido)phenyl)propanamido)benzoic acid] | 100 nM
COc1cn(C(Cc2ccccc2)C(=O)Nc2ccc3nn(C)cc3c2)c(=O)cc1-c1cc(Cl)ccc1C(C)=O (centres unmarked) [Example 18, 2-(4-(2-acetyl-5-chlorophenyl)-5-methoxy-2-oxopyridin-1(2H)-yl)-N-(2-methyl-2H-indazol-5-yl)-3-phenylpropanamide] | 56 nM
COc1cn([C@H](Cc2ccccc2)C(=O)Nc2ccc3nn(C)cc3c2)c(=O)cc1-c1cc(Cl)ccc1C(C)=O [Example 19, (R)-2-(4-(2-acetyl-5-chlorophenyl)-5-methoxy-2-oxopyridin-1(2H)-yl)-N-(2-methyl-2H-indazol-5-yl)-3-phenylpropanamide] | 5690 nM
CCCC(=O)c1ccc(Cl)cc1-c1cc(=O)n(C(Cc2ccccc2)C(=O)Nc2ccc(C(=O)O)cc2)cc1OC (centres unmarked) [Example 21, 4-(2-(4-(2-butyryl-5-chlorophenyl)-5-methoxy-2-oxopyridin-1 (2H)-yl)-3-phenylpropan amido)benzoic acid] | 36 nM
CCC(=O)c1ccc(Cl)cc1-c1cc(=O)n(C(Cc2ccccc2)C(=O)Nc2ccc3ncncc3c2)cc1OC (centres unmarked) [Example 23, 2-(4-(5-chloro-2-propionylphenyl)-5-methoxy-2-oxopyridin-1(2H)-yl)-3-phenyl-N-(quinazolin-6-yl)propanamide] | 24 nM
CCC(=O)c1ccc(Cl)cc1-c1cc(=O)n(C(Cc2ccccc2)C(=O)Nc2ccc(C(N)=O)cc2)cc1OC (centres unmarked) [Example 24, 4-(2-(4-(5-chloro-2-propionylphenyl)-5-methoxy-2-oxopyridin-1(2H)-yl)-3-phenylpropanamido)benzamide] | 36 nM
CCC(=O)c1ccc(Cl)cc1-c1cc(=O)n([C@H](Cc2ccccc2)C(=O)Nc2ccc(C(N)=O)cc2)cc1OC [Example 25, (R)-4-(2-(4-(5-chloro-2-propionylphenyl)-5-methoxy-2-oxopyridin-1(2H)-yl)-3-phenylpropanamido)benzamide] | 1520 nM
CCC(=O)c1ccc(Cl)cc1-c1cc(=O)n([C@@H](Cc2ccccc2)C(=O)Nc2ccc(C(N)=O)cc2)cc1OC [Example 26, (S)-4-(2-(4-(5-chloro-2-propionylphenyl)-5-methoxy-2-oxopyridin-1(2H)-yl)-3-phenylpropanamido)benzamide] | 21 nM
CCC(=O)c1ccc(Cl)cc1-c1cc(=O)n(C(Cc2ccccc2)C(=O)Nc2ccc3cn[nH]c3c2)cc1OC (centres unmarked) [Example 27, 2-(4-(5-chloro-2-propionylphenyl)-5-methoxy-2-oxopyridin-1(2H)-yl)-N-(1H-indazol-6-yl)-3-phenylpropanamide] | 66 nM
CCC(=O)c1ccc(Cl)cc1-c1cc(=O)n(C(Cc2ccccc2)C(=O)Nc2ccc3[nH]cnc3c2)cc1OC (centres unmarked) [Example 38, N-(1H-benzo[d]imidazol-5-yl)-2-(4-(5-chloro-2-propionylphenyl)-5-methoxy-2-oxopyridin-1(2H)-yl)-3-phenylpropanamide] | 30 nM
COc1cn(C(Cc2ccccc2)C(=O)Nc2ccc3ncncc3c2)c(=O)cc1-c1cc(Cl)ccc1C(C)=O (centres unmarked) [Example 40, 2-(4-(2-acetyl-5-chlorophenyl)-5-methoxy-2-oxopyridin-1(2H)-yl)-3-phenyl-N-(quinazolin-6-yl)propanamide] | 38 nM
COc1cn(C(Cc2ccccc2)C(=O)Nc2ccc(C(=O)O)cc2)c(=O)cc1-c1cc(Cl)ccc1C(=O)C1CC1 (centres unmarked) [Example 41, 4-(2-(4-(5-chloro-2-(cyclopropanecarbonyl)phenyl)-5-methoxy-2-oxopyridin-1(2H)-yl)-3-phenylpropanamido)benzoic acid] | 39 nM
COc1cn(C(Cc2ccccc2)C(=O)Nc2ccc3cn[nH]c3c2)c(=O)cc1-c1cc(Cl)ccc1C(C)=O (centres unmarked) [Example 42, 2-(4-(2-acetyl-5-chlorophenyl)-5-methoxy-2-oxopyridin-1 (2H)-yl)-N-(1H-indazol-6-yl)-3-phenylpropanamide] | 40 nM
COc1cn([C@@H](Cc2ccccc2)C(=O)Nc2ccc(C(=O)NC3CC3)cc2)c(=O)cc1-c1cc(Cl)ccc1C(C)=O [Example 43, (S)-4-(2-(4-(2-acetyl-5-chlorophenyl)-5-methoxy-2-oxopyridin-1 (2H)-yl)-3-phenylpropanamido)-N-cyclopropylbenzamide] | 47 nM
COc1cn(C(Cc2ccccc2)C(=O)Nc2ccc3nccnc3c2)c(=O)cc1-c1cc(Cl)ccc1C(C)=O (centres unmarked) [Example 45, 2-(4-(2-acetyl-5-chlorophenyl)-5-methoxy-2-oxopyridin-1(2H)-yl)-3-phenyl-N-(quinoxalin-6-yl)propanamide] | 69 nM
